In patent US20240018146A1, “COMPOSITIONS AND METHODS OF USING THE SAME FOR TREATMENT OF NEURODEGENERATIVE AND MITOCHONDRIAL DISEASE” (MITOKININ, INC., priority 2020, published 2024):
Converted amounts (≈) assume the structure as drawn. Read-outs that look alike come from different tables or passages of the source.

What was measured:
[1] = tested on: HeLa MKYP cells; assay: Human mitophagy assay (HeLa mKeima assay, FACS); type: cell-based; conditions: for EC50: Homo sapiens, HeLa
Outline: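 HeLa cells carrying the pH-sensitive mtKeima tag incubated 16 h with compound at several concentrations, then 1 uM FCCP/oligomycin for 6 h. FACS detects mitochondria in lysosomes through the Keima emission shift, quantified as percentage of cells in mitophagy.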

[2] = tested on: HeLa MKYP cells; assay: Cell death measured by DAPI staining, with 1 μM FCCP/oligomycin or no toxin (no FO); type: cell-based; conditions: for E105 death at 8.3 μM (no FO): 8.3 μM compound; for Max cell death at 25 μM compound, 1 uM FO (%) / Cell death at 25 μM (no FO) (%) / E104 death at 25 μM (no FO): 25 μM compound
Outline: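 HeLa MKYP cells were treated with compounds alongside 1 μM FCCP/oligomycin or no toxin for 6 or 6.5 h. Cell death was scored by DAPI staining, with H2O2 treatment as the death control.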

[3] = Mitotoxicity / Mitotox safety margin (therapeutic window); type: cell-based; conditions: for mitotoxicity: FIG. 5-7
[4] = Kinetic solubility; type: physicochemical
[5] = HeLa mKeima assay, read-out: Mitophagy EC50 (HeLa mKeima assay)
[6] = mitophagy, 1 μM FCCP/oligomycin, read-out: E100 EC50
[7] = read-out: Mitophagy induction EC50
[8] = mitophagy, 1 μM FCCP/oligomycin
[9] = average ± spread, read-out: E100 EC50 (μM) (average)

Row | Structure (SMILES) | E102 max mitophagy, fold over DMSO ([1]; 1 μM FCCP/oligomycin) [fold over DMSO] | EC50 [1, 5] [µM] | EC50 [1, 6] [µM] | EC50 [1, 7] [µM] | E101 lowest effective dose [1, 8] [µM] | E105 death at 8.3 μM (no FO) [2] | Max cell death at 25 μM compound, 1 uM FO (%) [2] [%] | Cell death at 25 μM (no FO) (%) [2] [%] | E104 death at 25 μM (no FO) [2] | Highest safe dose (cytotoxicity; no FO; safe means DAPI+ <20%) [2] [µM] | E103 max death with 1 μM FO [2] | Max % death with 1 μM FO [2] [%] | Mitotox safety margin (Therapeutic window) [3] | Mito-Safety Index (highest safe dose/EC50) [3] | Highest safe dose (μM) (mitotox or cytotox) [3] [µM] | solubility kinetic [4] [µM] | mitotoxicity [3] | Mitophagy EC50 (HeLa mKeima assay) (μM) ([1]; HeLa mKeima assay) | EC50 [1, 9] [µM] | solubility kinetic ([4]; kinetic from dmso stock) [µM]
1 | FC(F)(F)c1cc2c(N[C@@H]3c4ccccc4CC[C@H]3N3CCOCC3)ncnc2[nH]1 (racemic) [EP-0037821] | 9.53 | 0.4 | 0.45 | 0.38 | 0.30 | 2.87 | 71.62 | 41.03 | 25.17 | 13.9 | 62.82 | 68.5 | ++++ (++++ = 30<) | 22.05 | 8.3 | 14.1 (≈ 5.89 µg/mL) | – | – | – | –
2 | Fc1ccc2c(c1)CC[C@@H](N1CCOCC1)[C@@H]2Nc1ncnc2[nH]c(C(F)(F)F)cc12 (single isomer, unassigned) [EP-0038504] | 4.67 | 14.2 | 14.2 | 14.2 | 8.33 | 2.93 | 4.59 | 3.1 | 3.10 | 25.0 | 4.59 | 4.6 | + (+ = <10) | 1.76 | 25.0 | 1.56 (≈ 0.679 µg/mL) | low mitotoxicity | – | – | –
3 | FC(F)(F)c1cc2c(N[C@H]3c4ccccc4CC[C@@H]3N3CC4(COC4)C3)ncnc2[nH]1 [EP-0038249] | – | 2.73 | – | > 25 | – | – | 37.3 | 3.69 | – | 25.0 | – | 37.3 | – | – | – | 157 (≈ 67.4 µg/mL) | – | – | – | –
4 | CN(CC1CCOCC1)[C@H]1CCc2ccccc2[C@@H]1Nc1ncnc2[nH]c(C(F)(F)F)cc12 [EP-0038394] | – | 8.26 | – | > 25 | – | – | 61 | 11.4 | – | 8.3 | – | 61.0 | – | – | – | 7.05 (≈ 3.24 µg/mL) | – | – | – | –
5 | FC1(F)CCN([C@H]2CCc3ccccc3[C@@H]2Nc2ncnc3[nH]c(C(F)(F)F)cc23)CC1 (single isomer, unassigned) [EP-0038393] | – | 2.43 | – | > 25 | – | – | 17.6 | 1.98 | – | 25.0 | – | 17.6 | – | – | – | 1 (≈ 0.451 µg/mL) | – | – | – | –
6 | FC(F)(F)c1cc2c(N[C@@H]3c4ccccc4CC[C@H]3N3C[C@H]4COC[C@H]4C3)ncnc2[nH]1 (single isomer, unassigned) [EP-0038583] | – | 0.07 | – | 0.06 | – | – | 39.5 | 6.03 | – | 25.0 | – | 18.1 | + (+ = <10) | 158.93 | 9.1 | 1.56 (≈ 0.692 µg/mL) | – | – | – | –
7 | c1ccc2c(c1)CC[C@H](N1CCOCC1)[C@H]2Nc1ncnc2[nH]c(C3CC3)cc12 (racemic) [EP-0039677] | – | 0.21 | – | 0.21 | – | – | 10.2 | 3.02 | – | 25.0 | – | 10.2 | ++++ (++++ = 30<) | 13.51 | 2.8 | 1.56 (≈ 0.608 µg/mL) | – | – | – | –
8 | c1ccc2c(c1)CC[C@H](N1CCOCC1)[C@H]2Nc1ncnc2[nH]cnc12 [EP-0039678] | – | – | – | – | – | – | 2.27 | 1.77 | – | – | – | – | – | – | – | 164 (≈ 57.5 µg/mL) | – | Minimal | – | –
9 | FC(F)(F)c1cc2c(N[C@@H]3c4ccccc4CC[C@@H]3N3CCOCC3)ncnc2[nH]1 [EP-0037820] | – | 17.4 | – | 20.3 | – | – | 58 | 41.4 | – | 16.7 | – | 60.7 | + (+ = <10) | – | – | 14.5 (≈ 6.05 µg/mL) | – | – | – | –
10 | Fc1ccc2c(c1)CC[C@H](N1CCOCC1)[C@H]2Nc1ncnc2[nH]c(C3CC3)cc12 (single isomer, unassigned) [EP-0038521] | 5.24 | 0.37 | 0.37 | 0.34 | 2.78 | – | 6.77 | 3.42 | – | 25.0 | 6.77 | 7.6 | +++ (+++ = 20 < x < 30) | 24.49 | 8.3 | 1.56 (≈ 0.636 µg/mL) | low mitotoxicity | – | 0.3 ± 0.07 | –
11 | FC(F)(F)c1cc2c(N[C@@H]3c4ccccc4CC[C@H]3N3CCOCC3)ncnc2[nH]1 (single isomer, unassigned) [EP-0038099] | 7.78 | – | – | – | 25.00 | 2.41 | 13.7 | 4.11 | 4.11 | – | 13.71 | – | – | – | – | 14.1 (≈ 5.89 µg/mL) | – | Minimal | – | –
12 | FC(F)(F)c1cc2c(N[C@H]3c4ccccc4CC[C@@H]3N3CCCCC3)ncnc2[nH]1 (single isomer, unassigned) [EP-0038392] | – | 2.77 | – | > 25 | – | – | 23.2 | 3.1 | – | 25.0 | – | 23.2 | – | – | – | 187 (≈ 77.7 µg/mL) | – | – | – | –
13 | Fc1ccc2c(c1)CC[C@H](N1CCOCC1)[C@H]2Nc1ncnc2[nH]c(C(F)(F)F)cc12 (single isomer, unassigned) [EP-0038503] | 5.11 | 0.38 | 0.58 | 0.48 | 8.33 | – | 8.15 | 2.53 | – | 25.0 | 4.37 | 6.3 | ++ (++ = 10 < x < 20) | 17.40 | 8.3 | 1.56 (≈ 0.679 µg/mL) | low mitotoxicity | – | 0.48 ± 0.1 | –
14 | FC(F)(F)c1cc2c(N[C@H]3c4ccccc4CC[C@@H]3N3C[C@H]4COC[C@H]4C3)ncnc2[nH]1 (single isomer, unassigned) [EP-0038582] | – | – | – | > 25 | – | – | 5.87 | 3.77 | – | 25.0 | – | 4.3 | – | – | 25.0 | – | – | Minimal | – | 1.56 (≈ 0.692 µg/mL)
15 | O=C1COCCN1[C@H]1CCc2ccccc2[C@@H]1Nc1ncnc2[nH]c(C(F)(F)F)cc12 (single isomer, unassigned) [EP-0038378] | – | 2.77 | – | > 25 | – | – | 15.4 | 4.55 | – | 25.0 | – | 15.4 | – | – | – | 3.02 (≈ 1.3 µg/mL) | – | – | – | –
